Measurements as given in publication PMC6478789, “A chemical toolbox for the study of bromodomains and epigenetic signaling” (Nature Communications, 2019).
Where two headings read alike, the source gives them in different places.

Experiments:
Experiment in all cases: BROMOscan ligand-binding assay
[1] = molecular target: T1, TAF1L(2) (Homo sapiens, UniProt Q8IZX4)
T1 sequence (Q8IZX4 1517-1626 limits assumed): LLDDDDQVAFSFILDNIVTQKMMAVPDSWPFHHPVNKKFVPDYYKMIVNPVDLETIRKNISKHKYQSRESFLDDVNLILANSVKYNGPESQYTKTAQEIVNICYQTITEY
From the text: (§1) BROMOscan is a binding assay based on the well-known KINOMEscan technology. This assay measures the binding of a DNA-tagged bromodomain to an immobilized BRD ligand. If an inhibitor is present, it will compete with the bromodomain binding to the immobilized ligand, resulting in reduction of a quantitative PCR (qPCR) signal in a dose-dependent manner.

[2] = molecular target: BRD8(2) (Homo sapiens, UniProt Q9H0E9)
From the text: as §1

[3] = molecular target: BRD2(2) (Homo sapiens, UniProt P25440)
From the text: as §1

[4] = molecular target: T2, EP300 (Homo sapiens, UniProt Q09472)
T2 sequence (Q09472 1049-1156 limits assumed): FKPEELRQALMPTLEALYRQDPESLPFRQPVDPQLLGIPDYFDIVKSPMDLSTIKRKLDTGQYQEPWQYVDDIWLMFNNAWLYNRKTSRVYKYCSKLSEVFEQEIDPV
From the text: as §1

[5] = molecular target: T3, TRIM33(PHD,BRD) (Homo sapiens, UniProt Q9UPN9)
T3 sequence (Q9UPN9 882-1087 limits assumed): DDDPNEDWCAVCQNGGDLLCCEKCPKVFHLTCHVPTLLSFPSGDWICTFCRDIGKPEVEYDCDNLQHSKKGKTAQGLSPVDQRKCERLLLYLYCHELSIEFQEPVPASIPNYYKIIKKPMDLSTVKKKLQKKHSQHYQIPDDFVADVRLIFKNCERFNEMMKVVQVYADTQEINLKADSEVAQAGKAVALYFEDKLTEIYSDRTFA
From the text: as §1

[6] = molecular target: T4, BRD7 (Homo sapiens, UniProt Q9NPI1)
T4 sequence (Q9NPI1 131-235 limits assumed): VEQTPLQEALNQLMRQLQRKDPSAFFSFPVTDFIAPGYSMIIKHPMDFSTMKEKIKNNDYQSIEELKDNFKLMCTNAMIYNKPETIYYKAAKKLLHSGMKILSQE
From the text: as §1

[7] = molecular target: T5, BRD1 (Homo sapiens, UniProt O95696)
T5 sequence (O95696 562-666 limits assumed): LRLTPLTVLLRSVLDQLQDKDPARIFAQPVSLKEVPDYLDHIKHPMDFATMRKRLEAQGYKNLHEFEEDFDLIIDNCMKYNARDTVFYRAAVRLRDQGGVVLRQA
From the text: as §1

[8] = molecular target: BRDT(1,2) (Homo sapiens, UniProt Q58F21)
From the text: as §1

[9] = molecular target: T6, BAZ2A (Homo sapiens, UniProt Q9UIF9)
T6 sequence (Q9UIF9 1793-1897 limits assumed): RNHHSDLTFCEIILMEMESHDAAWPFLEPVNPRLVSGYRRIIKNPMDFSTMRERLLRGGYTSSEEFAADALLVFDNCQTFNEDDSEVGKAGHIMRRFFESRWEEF
From the text: as §1

[10] = molecular target: PBRM1(5) (Homo sapiens, UniProt Q86U86)
From the text: as §1

[11] = molecular target: BRD3(1,2) (Homo sapiens, UniProt Q15059)
From the text: as §1

[12] = molecular target: T7, BAZ2B (Homo sapiens, UniProt Q9UIF8)
T7 sequence (Q9UIF8 2060-2164 limits assumed): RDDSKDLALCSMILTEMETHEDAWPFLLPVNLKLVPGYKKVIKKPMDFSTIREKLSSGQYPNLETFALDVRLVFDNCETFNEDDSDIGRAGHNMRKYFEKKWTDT
From the text: as §1

[13] = molecular target: BRDT(1) (Homo sapiens, UniProt Q58F21)
From the text: as §1

[14] = molecular target: T8, TRIM24(PHD,BRD) (Homo sapiens, UniProt O15164)
T8 sequence (O15164 824-1006 limits assumed): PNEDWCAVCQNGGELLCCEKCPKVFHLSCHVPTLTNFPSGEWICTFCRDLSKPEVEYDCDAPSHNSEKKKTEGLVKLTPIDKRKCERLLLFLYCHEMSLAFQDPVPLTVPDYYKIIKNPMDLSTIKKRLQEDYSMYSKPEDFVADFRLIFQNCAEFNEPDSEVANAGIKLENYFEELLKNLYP
From the text: as §1

[15] = molecular target: SMARCA2 (Homo sapiens, UniProt P51531)
From the text: as §1

[16] = molecular target: T9, GCN5L2 (Homo sapiens, UniProt Q92830)
T9 sequence (Q92830 728-832 limits assumed): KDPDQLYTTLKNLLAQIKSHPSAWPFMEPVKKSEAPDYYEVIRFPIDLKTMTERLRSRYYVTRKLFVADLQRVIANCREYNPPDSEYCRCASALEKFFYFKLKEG
From the text: as §1

[17] = molecular target: BRD3(1) (Homo sapiens, UniProt Q15059)
From the text: as §1

[18] = molecular target: BRD4(1) (Homo sapiens, UniProt O60885)
From the text: as §1

[19] = molecular target: T10, PCAF (Homo sapiens, UniProt Q92831)
T10 sequence (Q92831 723-827 limits assumed): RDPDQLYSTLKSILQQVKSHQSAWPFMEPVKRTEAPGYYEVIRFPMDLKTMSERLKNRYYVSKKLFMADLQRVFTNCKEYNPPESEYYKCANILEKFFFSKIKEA
From the text: as §1

[20] = molecular target: FALZ (Homo sapiens, UniProt Q12830)
From the text: as §1

[21] = molecular target: SMARCA4 (Homo sapiens, UniProt P51532); conditions: SMARCA4
From the text: as §1

[22] = read-out: KD (BROMOscan), sheet prints no unit (nM)
[23] = KD (BROMOscan), sheet prints no unit (nM)

Chain of PBRM1(5) (Q86U86 653-763 limits assumed): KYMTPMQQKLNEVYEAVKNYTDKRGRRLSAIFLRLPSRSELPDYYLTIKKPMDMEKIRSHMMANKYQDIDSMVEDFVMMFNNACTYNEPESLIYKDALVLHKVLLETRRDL
Chain of BRD8(2) (Q9H0E9 1099-1207 limits assumed): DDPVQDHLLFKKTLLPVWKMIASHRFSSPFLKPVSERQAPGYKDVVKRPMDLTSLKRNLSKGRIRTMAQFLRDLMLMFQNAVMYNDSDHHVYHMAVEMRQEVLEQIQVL
Chain of BRD3(1) (Q15059 34-140 limits assumed): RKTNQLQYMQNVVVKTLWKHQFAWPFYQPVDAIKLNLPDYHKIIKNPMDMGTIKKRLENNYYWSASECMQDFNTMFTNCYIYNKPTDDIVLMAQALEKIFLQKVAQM
Chain of BRD2(2) (P25440 344-453 limits assumed): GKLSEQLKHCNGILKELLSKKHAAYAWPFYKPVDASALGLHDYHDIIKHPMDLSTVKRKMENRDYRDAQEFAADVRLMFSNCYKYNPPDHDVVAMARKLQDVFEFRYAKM
Chain of SMARCA2 (P51531 1-1572 isoform P51531-2): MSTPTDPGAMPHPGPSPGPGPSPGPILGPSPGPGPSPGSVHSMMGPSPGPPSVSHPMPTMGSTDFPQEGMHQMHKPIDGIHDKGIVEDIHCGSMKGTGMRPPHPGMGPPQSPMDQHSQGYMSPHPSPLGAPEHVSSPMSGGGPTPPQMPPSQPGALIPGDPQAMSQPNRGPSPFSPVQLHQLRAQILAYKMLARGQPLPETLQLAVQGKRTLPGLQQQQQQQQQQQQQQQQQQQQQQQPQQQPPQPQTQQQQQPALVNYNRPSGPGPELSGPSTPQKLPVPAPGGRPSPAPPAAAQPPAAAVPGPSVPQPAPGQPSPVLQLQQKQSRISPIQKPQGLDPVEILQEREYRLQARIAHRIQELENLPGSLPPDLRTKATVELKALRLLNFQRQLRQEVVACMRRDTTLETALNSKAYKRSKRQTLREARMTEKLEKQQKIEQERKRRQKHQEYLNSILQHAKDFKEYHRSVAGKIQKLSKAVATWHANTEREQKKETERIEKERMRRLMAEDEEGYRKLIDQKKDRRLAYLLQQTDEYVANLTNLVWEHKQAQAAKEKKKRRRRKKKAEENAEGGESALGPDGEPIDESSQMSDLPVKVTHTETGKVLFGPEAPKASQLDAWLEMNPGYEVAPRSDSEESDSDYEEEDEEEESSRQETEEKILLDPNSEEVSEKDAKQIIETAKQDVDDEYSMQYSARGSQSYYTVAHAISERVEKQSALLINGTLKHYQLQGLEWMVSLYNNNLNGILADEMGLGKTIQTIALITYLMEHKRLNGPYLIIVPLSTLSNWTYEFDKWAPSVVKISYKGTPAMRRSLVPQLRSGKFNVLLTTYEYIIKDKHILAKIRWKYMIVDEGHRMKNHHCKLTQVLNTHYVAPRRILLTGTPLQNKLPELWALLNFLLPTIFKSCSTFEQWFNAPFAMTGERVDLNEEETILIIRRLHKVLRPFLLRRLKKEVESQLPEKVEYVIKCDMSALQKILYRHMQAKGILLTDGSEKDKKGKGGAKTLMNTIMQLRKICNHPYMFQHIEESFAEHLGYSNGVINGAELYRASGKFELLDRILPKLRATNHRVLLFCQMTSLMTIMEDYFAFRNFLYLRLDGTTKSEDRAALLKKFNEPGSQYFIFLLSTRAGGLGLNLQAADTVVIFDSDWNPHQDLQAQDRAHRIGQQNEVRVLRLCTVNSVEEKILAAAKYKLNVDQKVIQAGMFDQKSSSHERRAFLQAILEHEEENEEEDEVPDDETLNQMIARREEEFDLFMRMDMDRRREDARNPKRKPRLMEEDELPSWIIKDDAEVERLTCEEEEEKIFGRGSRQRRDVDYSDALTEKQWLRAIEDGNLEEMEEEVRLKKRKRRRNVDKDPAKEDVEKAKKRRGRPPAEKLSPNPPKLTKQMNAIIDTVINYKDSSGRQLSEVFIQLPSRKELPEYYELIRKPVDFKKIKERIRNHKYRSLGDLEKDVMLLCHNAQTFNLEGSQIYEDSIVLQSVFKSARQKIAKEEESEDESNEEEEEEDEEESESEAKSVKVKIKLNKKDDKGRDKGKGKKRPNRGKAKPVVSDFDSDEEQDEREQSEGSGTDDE
Chain of BRD3(1,2) (Q15059 24-416 limits assumed): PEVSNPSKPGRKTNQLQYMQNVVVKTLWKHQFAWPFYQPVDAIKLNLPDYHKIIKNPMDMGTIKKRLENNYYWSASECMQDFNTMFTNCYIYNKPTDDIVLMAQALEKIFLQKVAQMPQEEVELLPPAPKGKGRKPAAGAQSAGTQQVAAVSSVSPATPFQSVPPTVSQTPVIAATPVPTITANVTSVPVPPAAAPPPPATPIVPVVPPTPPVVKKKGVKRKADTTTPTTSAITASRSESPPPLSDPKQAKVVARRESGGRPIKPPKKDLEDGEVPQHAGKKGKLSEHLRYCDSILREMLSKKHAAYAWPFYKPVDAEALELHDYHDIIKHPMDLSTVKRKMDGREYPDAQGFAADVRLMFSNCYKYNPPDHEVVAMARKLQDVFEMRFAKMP
Chain of SMARCA4 (P51532 1453-1564 limits assumed): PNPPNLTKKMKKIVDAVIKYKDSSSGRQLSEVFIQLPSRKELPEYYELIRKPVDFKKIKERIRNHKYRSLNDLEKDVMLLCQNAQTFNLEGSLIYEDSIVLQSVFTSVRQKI

Work on `CCCS(=O)(=O)c1nc(NC2CC2)cc(-c2ccc3c(ccn3C3CC(C)(C)NC(C)(C)C3)c2)n1` [NVS-CECR2-1] yielded a Kd [1] of 9.6 µM, a Kd [2] greater than 30000 nM and a Kd [3] greater than 30 µM. For the same molecule, the Kd [4] was greater than 30000 nM, the Kd [5] was greater than 30000 nM and the Kd [6] was 6800 nM. It also gave a Kd [7] greater than 30 µM, a Kd [8] of 14000 nM and a Kd [9] greater than 30 µM. For the same molecule, the Kd [10] was greater than 30 µM, the Kd [11] was greater than 30000 nM and the Kd [12] was greater than 30000 nM. For the same molecule, the Kd [13] was greater than 30000 nM, the Kd [14] was greater than 30000 nM and the Kd [15] was greater than 30000 nM. The Kd [16] was greater than 30000 nM, the Kd [17] was greater than 30000 nM and the Kd [18] was 21 µM. It also gave a Kd [19] greater than 30000 nM and a Kd [20] of 360 nM.

`COc1cc2c(cc1NS(=O)(=O)c1ccc(Br)cc1C)n(C)c(=O)n2C` [OF-1] showed a Kd ([1]; TAF1L(2)) of 5.3 µM, a Kd [21] of 16 µM and a Kd ([2]; BRD8(2)) greater than 50000 nM. The Kd [2, 22] was greater than 30000 nM, the Kd ([3]; BRD2(2)) was 10 µM and the Kd ([4]; EP300) was 47000 nM. It also gave a Kd ([5]; TRIM33(PHD,Bromo.)) of 40000 nM, a Kd ([6]; BRD7) of 1000 nM and a Kd ([7]; BRD1) of 0.36 µM. The Kd ([8]; BRDT(1,2)) was 11000 nM, the Kd ([9]; BAZ2A) was 13 µM and the Kd ([10]; PBRM1(5)) was 4.5 µM. The Kd ([11]; BRD3(1,2)) was 4900 nM, the Kd ([12]; BAZ2B) was 2500 nM and the Kd ([13]; BRDT(1)) was 3500 nM. It also gave a Kd ([14]; TRIM24(PHD,Bromo.)) of 4500 nM, a Kd ([15]; SMARCA2) greater than 50000 nM and a Kd [15, 22] greater than 30000 nM. For the same molecule, the Kd ([16]; GCN5L2) was 6900 nM, the Kd ([17]; BRD3(1)) was 5500 nM and the Kd ([19]; PCAF) was 12000 nM. The Kd ([20]; FALZ) was 1600 nM.

`O=C(C=CN1CC2CC1CN2c1ccccn1)c1ccccc1O` (stereo not shown) [PFI-3] showed a Kd [2, 23] greater than 30000 nM, a Kd ([2]; KD, BRD8(2)) greater than 100000 nM and a Kd [4, 23] greater than 30000 nM. It also gave a Kd ([4]; KD, EP300) greater than 100000 nM, a Kd [5, 23] greater than 30000 nM and a Kd ([5]; KD, TRIM33(PHD,Bromo.)) greater than 100000 nM. It also gave a Kd [6, 23] greater than 30000 nM, a Kd ([6]; KD, BRD7) greater than 100000 nM and a Kd [8, 23] greater than 30000 nM. For the same molecule, the Kd ([8]; KD, BRDT(1,2)) was greater than 100000 nM, the Kd [9] was greater than 100 µM and the Kd [11, 23] was greater than 30000 nM. The Kd ([11]; KD, BRD3(1,2)) was greater than 100000 nM, the Kd [12, 23] was greater than 30000 nM and the Kd ([12]; KD, BAZ2B) was greater than 100000 nM. It also gave a Kd [13, 23] greater than 30000 nM, a Kd ([13]; KD, BRDT(1)) greater than 100000 nM and a Kd [14, 23] greater than 30000 nM. It also gave a Kd ([14]; KD, TRIM24(PHD,Bromo.)) greater than 100000 nM, a Kd [16, 23] greater than 30000 nM and a Kd ([16]; KD, GCN5L2) greater than 100000 nM. For the same molecule, the Kd [17, 23] was greater than 30000 nM, the Kd ([17]; KD, BRD3(1)) was greater than 100000 nM and the Kd [19, 23] was greater than 30000 nM. It also gave a Kd ([19]; KD, PCAF) greater than 100000 nM, a Kd [20, 23] greater than 30000 nM and a Kd ([20]; KD, FALZ) greater than 100000 nM.

For `COc1ccc(CCc2nc3cc(-c4c(C)noc4C)ccc3n2C[C@H](C)N2CCOCC2)cc1Cl` [SGC-CBP30], the Kd [1] was 7.1 µM, the Kd [2, 23] was greater than 30000 nM and the Kd ([2]; KD, BROMOscan, BRD8(2)) was greater than 100000 nM. The Kd [3] was 2.4 µM, the Kd [5, 23] was greater than 30000 nM and the Kd ([5]; KD, BROMOscan, TRIM33(PHD,Bromo.)) was greater than 100000 nM. It also gave a Kd ([6]; KD, BROMOscan, BRD7) of 39000 nM, a Kd [7] of 21 µM and a Kd ([8]; KD, BROMOscan, BRDT(1,2)) of 3100 nM. For the same molecule, the Kd [9] was 69 µM, the Kd ([10]; KD, BROMOscan, PBRM1(5)) was 49.7 µM and the Kd ([11]; KD, BROMOscan, BRD3(1,2)) was 1100 nM. The Kd [12, 23] was greater than 30000 nM, the Kd ([12]; KD, BROMOscan, BAZ2B) was greater than 100000 nM and the Kd ([13]; KD, BROMOscan, BRDT(1)) was 2600 nM. It also gave a Kd ([14]; KD, BROMOscan, TRIM24(PHD,Bromo.)) of 6500 nM, a Kd [15, 23] greater than 30000 nM and a Kd ([15]; KD, BROMOscan, SMARCA2) greater than 100000 nM. It also gave a Kd [16, 23] greater than 30000 nM, a Kd ([16]; KD, BROMOscan, GCN5L2) greater than 100000 nM and a Kd ([17]; KD, BROMOscan, BRD3(1)) of 740 nM. The Kd [18] was 1.1 µM, the Kd [19, 23] was greater than 30000 nM and the Kd ([19]; KD, BROMOscan, PCAF) was greater than 100000 nM. For the same molecule, the Kd ([20]; KD, BROMOscan, FALZ) was 81000 nM.
